Test system: dopamine receptors 3 and 5 in CD34+/CD38-/low cells
Experiment: In vitro 3-day incubation with GM-CSF, dopamine receptor staining
Assay type: cell-based, human
Conditions: 3-day incubation with GM-CSF 5 ng/ml; MPB, normal BM or cord blood cells
Method: (vi) Flow cytometry analysis. Phenotypes of human and murine cells were examined by immunostaining, followed by flow cytometry analysis on FACSCalibur (Becton Dickinson, San Jose, Calif.) with CellQuest software. Single cell suspension were prepared in PBS containing 0.01% sodium azide and 1% FCS. Human plasma and mouse IgG were used to block human and murine Fc-receptors. Isotype-matched control antibodies were used to exclude false positive cells. Staining was performed in 4° C. for 30 minutes. Engraftment of human cells was examined by staining with mouse anti-human CD45-Fitc, CD38-PE and CD34-APC (Becton Dickinson). Human leukocytes were gated according to their expression of the pan-leukocyte marker CD45, and amongst this population the percentage of CD34+/CD38−/low primitive cells was determined. In several experiments dopamine receptor expression on CD34+/CD38−/low was tested, cells were triple stained with mouse anti-human CD38-PE, CD34-APC and rabbit anti human dopamine receptor 3 or 5 (Calbiochem, Nottingham, UK) followed by secondary antibodies goat anti rabbit alexa 488 (Molecular Probes, Eugene, Oreg.). After staining, cells were washed in FACS buffer and analyzed by fluorescence-activated cell sorting (FACSCalibur and CellQuest software, Becton Dickinson). […]

## GM-CSF: myeloid cytokine, granulocyte/macrophage-colony stimulating factor
  levels of dopamine receptors 3 and 5 in CD34+/CD38-/low cells: up regulated

Reference: US8241903B2, “Catecholamine receptor modulation” (Yeda Research and Development Co., Ltd., priority 2006, dated 2012)
